The test system of test [1] is NF-kB-dependent TNF-α secretion. Description: TNF-α secretion assay (counterscreen). Type of test: cell-based. To be noted: Homo sapiens; THP-1 cells, Pam3CSK4-stimulated, 3 hours, HTRF. The protocol: Monocytic THP-1 cells were maintained according to providers' instructions in RPMI media as described above. Undifferentiated cells were plated at 50,000 cells per well in a 384-well flat-bottom cell culture plates (Greiner, #781986), and allowed to rest overnight. Experimental compounds were prepared and added as described above. TNF-α secretion was triggered by the addition of either 1 μg/mL LPS (Sigma, #L4391) or 100 ng/mL Pam3CSK4 (Invivogen, #tlrl-pms) depending on the experiment, and cells were incubated for 3 hours. 10 μL supernatant was removed, and TNF-α levels were monitored using an HTRF assay (CisBio, #62TNFPEC) according to manufacturers' instructions. Viability was monitored as described above.
IC50 values were calculated from the plot of percentage of inhibition versus the inhibitor concentration by a logistics fit according to: y=A2+(A1−A2)/(1+(x/IC50)^p) where y is the %-inhibition at the inhibitor concentration, x. A1 is the lowest inhibition value, i.e. 0%, and A2 the maximum inhibition value, i.e. 100%. The exponent, p, is the Hill coefficient. The curve fitting was conducted with an internally developed software suite. […]
(In general: A counterscreen serves to expose hits that act by an unwanted route or on another target.)

In another test the test system is NLRP3 inflammasome. The test is described as follows: IL-1β secretion assay. The format is cell-based. To be noted: PMA-differentiated THP-1 cells, 15 μM nigericin, HTRF. The method in brief: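 PMA-differentiated THP-1 cells stimulated with nigericin to trigger NLRP3-dependent IL-1β secretion, measured by HTRF after 3 h. Viability/pyroptosis monitored with PrestoBlue. IC50 from logistic fit of % inhibition vs concentration with Hill coefficient.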
(In general: Time-resolved FRET reads energy transfer from a long-lived donor to a nearby acceptor.)

Structures can show the parent of a compound that is named as a salt.

In general, IC50 refers to the concentration that inhibits the measured activity by half. The low end stands for greater potency in that assay, the high end for weaker potency in that assay.

In the case of `CN1CCC[C@@H](NC(=O)Cn2nc(C3CC3)n3c(cc4sc(F)cc43)c2=O)C1` [Ex 35, (R)-2-(5-Cyclopropyl-2-fluoro-8-oxothieno[2′,3′:4,5]pyrrolo[1,2-d][1,2,4]triazin-7(8H)-yl)-N-(1-methylpiperidin-3-yl)acetamide], the IC50 stood at 40000 nM in test [1] and 48.1 nM in the test with NLRP3 inflammasome (Homo sapiens, THP-1, 3 h).
On to `CC(C)(O)c1nn(CC(=O)N[C@@H]2CCC[C@H](O)C2)c(=O)c2cc3sc(Cl)cc3n12` [Ex 81, 2-(2-Chloro-5-(2-hydroxypropan-2-yl)-8-oxothieno[2′,3′:4,5]pyrrolo[1,2-d][1,2,4]triazin-7(8H)-yl)-N-((1R,3S)-3-hydroxycyclohexyl)acetamide], for which the IC50 in test [1] was > 100000 nM; in the test with NLRP3 inflammasome (Homo sapiens, THP-1, 3 h), 3.9 nM.
As for `CC(C)c1nn(CC(=O)N[C@@H]2CCC(=O)N(C)C2)c(=O)c2cc3scnc3n12` [Ex 49, (R)-2-(5-Isopropyl-8-oxothiazolo[5′,4′:4,5]pyrrolo[1,2-d][1,2,4]triazin-7(8H)-yl)-N-(1-methyl-6-oxopiperidin-3-yl)acetamide], the values for the IC50 (in test [1]; in the test with NLRP3 inflammasome (3 hours)) were > 100000 nM and 26.4 nM, respectively.
On to `O=C(Cn1nc(C2CC2)n2c(cc3sc(Cl)cc32)c1=O)N[C@@H]1CCCNC1` [Ex 36, (R)-2-(2-Chloro-5-cyclopropyl-8-oxothieno[2′,3′:4,5]pyrrolo[1,2-d][1,2,4]triazin-7(8H)-yl)-N-(piperidin-3-yl)acetamide hydrochloride], for which the IC50 is > 100000 nM in test [1] and 109 nM with NLRP3 inflammasome (Homo sapiens, THP-1, 3 h).
For the compound `CC(C)c1nn(CC(=O)N[C@H]2CCC[C@@H](C(=O)O)C2)c(=O)c2cc3sc(Cl)cc3n12` [Ex 55, (1R,3S)-3-(2-(2-Chloro-5-isopropyl-8-oxothieno[2′,3′:4,5]pyrrolo[1,2-d][1,2,4]triazin-7(8H)-yl)acetamido)cyclohexane-1-carboxylic acid], the IC50 in test [1] was > 100000 nM; with NLRP3 inflammasome (Homo sapiens, THP-1, 3 h), 843 nM.
With `CC(C)c1nn(CC(=O)N[C@@H]2CCCN(C[C@H](C)O)C2)c(=O)c2cc3sc(Cl)cc3n12` [Ex 129, 2-(2-Chloro-5-isopropyl-8-oxothieno[2′,3′:4,5]pyrrolo[1,2-d][1,2,4]triazin-7(8H)-yl)-N-((R)-1-((S)-2-hydroxypropyl)piperidin-3-yl)acetamide], the IC50 is > 100000 nM in test [1] and 3.1 nM in the test on NLRP3 inflammasome (Homo sapiens, THP-1, 3 h).
`CN1C[C@H](NC(=O)Cn2nc(C(C)(C)O)n3c(cc4sc(Cl)cc43)c2=O)CCC1=O` [Ex 29, (R)-2-(2-Chloro-5-(2-hydroxypropan-2-yl)-8-oxothieno[2′,3′:4,5]pyrrolo[1,2-d][1,2,4]triazin-7(8H)-yl)-N-(1-methyl-6-oxopiperidin-3-yl)acetamide]: the IC50 in test [1] was > 100000 nM; with NLRP3 inflammasome (Homo sapiens, THP-1, 3 h), 35.7 nM.
On the same counts, the results for `CC(C)c1nn(CC(=O)N[C@@H]2CCC(=O)NC2)c(=O)c2cc3sc(F)cc3n12` [Ex 33, (R)-2-(2-Fluoro-5-isopropyl-8-oxothieno[2′,3′:4,5]pyrrolo[1,2-d][1,2,4]triazin-7(8H)-yl)-N-(6-oxopiperidin-3-yl)acetamide] are > 100000 nM and 108 nM.
Consider `CC(C)c1nn(CC(=O)NC2(CO)CC2)c(=O)c2cc3sc(Cl)cc3n12` [Ex 111, 2-(2-Chloro-5-isopropyl-8-oxothieno[2′,3′:4,5]pyrrolo[1,2-d][1,2,4]triazin-7(8H)-yl)-N-(1-(hydroxymethyl)cyclopropyl)acetamide], for which the IC50 in test [1] is > 100000 nM; in the test on NLRP3 inflammasome (Homo sapiens, THP-1, 3 h), 111 nM.
In the case of `CC(C)c1nn(CC(=O)Nc2ccncn2)c(=O)c2cc3sc(F)cc3n12` [Ex 6, 2-(2-Fluoro-5-isopropyl-8-oxothieno[2′,3′:4,5]pyrrolo[1,2-d][1,2,4]triazin-7(8H)-yl)-N-(pyrimidin-4-yl)acetamide], the IC50 in test [1] is > 100000 nM; in the test with NLRP3 inflammasome (Homo sapiens, THP-1, 3 h) it was 6.5 nM.
Consider `CC(C)(O)c1nn(CC(=O)NC2CC2)c(=O)c2cc3sc(Cl)cc3n12` [Ex 62, 2-(2-Chloro-5-(2-hydroxypropan-2-yl)-8-oxothieno[2′,3′:4,5]pyrrolo[1,2-d][1,2,4]triazin-7(8H)-yl)-N-cyclopropylacetamide], for which the IC50 in test [1] was > 100000 nM; in the test with NLRP3 inflammasome (Homo sapiens, THP-1, 3 h), 76.1 nM.
As for `CC(C)(O)c1nn(CC(=O)Nc2cccnc2)c(=O)c2cc3sc(Cl)cc3n12` [Ex 8, 2-(2-Chloro-5-(2-hydroxypropan-2-yl)-8-oxothieno[2′,3′:4,5]pyrrolo[1,2-d][1,2,4]triazin-7(8H)-yl)-N-(pyridin-3-yl)acetamide], the IC50 in test [1] was > 100000 nM; with NLRP3 inflammasome (Homo sapiens, THP-1, 3 h), 87.4 nM.
As to `CC(C)c1nn(CC(=O)N[C@@H]2CCNC2)c(=O)c2cc3sc(Cl)cc3n12` [Ex 103, (R)-2-(2-Chloro-5-isopropyl-8-oxothieno[2′,3′:4,5]pyrrolo[1,2-d][1,2,4]triazin-7(8H)-yl)-N-(pyrrolidin-3-yl)acetamide], the IC50 was > 100000 nM in test [1] and 190 nM with NLRP3 inflammasome (Homo sapiens, THP-1, 3 h).
As for `CC(C)c1nn(CC(=O)NC[C@@H](C)O)c(=O)c2cc3sc(Cl)cc3n12` [Ex 70, (R)-2-(2-Chloro-5-isopropyl-8-oxothieno[2′,3′:4,5]pyrrolo[1,2-d][1,2,4]triazin-7(8H)-yl)-N-(2-hydroxypropyl)acetamide], the IC50 in test [1] was > 100000 nM; in the test on NLRP3 inflammasome (Homo sapiens, THP-1, 3 h) it was 34.9 nM.
The like results for `CC(C)c1nn(CC(=O)N[C@@H]2CCCN(CC3CC3)C2)c(=O)c2cc3sc(Cl)cc3n12` [Ex 134, (R)-2-(2-Chloro-5-isopropyl-8-oxothieno[2′,3′:4,5]pyrrolo[1,2-d][1,2,4]triazin-7(8H)-yl)-N-(1-(cyclopropylmethyl)piperidin-3-yl)acetamide] were, in that order, > 100000 nM and 0.7 nM.
On to `CC(C)c1nn(CC(=O)N[C@@H]2CCC[C@@](C)(O)C2)c(=O)c2cc3sc(Cl)cc3n12` [Ex 27, 2-(2-Chloro-5-isopropyl-8-oxothieno[2′,3′:4,5]pyrrolo[1,2-d][1,2,4]triazin-7(8H)-yl)-N-((1R,3R)-3-hydroxy-3-methylcyclohexyl)acetamide], for which the IC50 in test [1] was > 100000 nM; in the test on NLRP3 inflammasome (Homo sapiens, THP-1, 3 h) it was 18 nM.
As to `CC1(C)CC(NC(=O)Cn2nc(C(C)(C)O)n3c(cc4sc(Cl)cc43)c2=O)C1` [Ex 25, 2-(2-Chloro-5-(2-hydroxypropan-2-yl)-8-oxothieno[2′,3′:4,5]pyrrolo[1,2-d][1,2,4]triazin-7(8H)-yl)-N-(3,3-dimethylcyclobutyl)acetamide], the half-maximal inhibitory concentration (IC50) was > 100000 nM in test [1] and 78.5 nM in the test with NLRP3 inflammasome (Homo sapiens, THP-1, 3 h).
With `CC(O)c1nn(CC(=O)Nc2cccnc2)c(=O)c2cc3sc(Cl)cc3n12` (stereo not drawn) [Ex 42, 2-(2-Chloro-5-(1-hydroxyethyl)-8-oxothieno[2′,3′:4,5]pyrrolo[1,2-d][1,2,4]triazin-7(8H)-yl)-N-(pyridin-3-yl)acetamide], the IC50 in test [1] is > 100000 nM; with NLRP3 inflammasome (Homo sapiens, THP-1, 3 h), 1100 nM.
Turning to `CC(C)c1nn(CC(=O)N[C@@H]2CCCN(CCO)C2)c(=O)c2cc3sc(Cl)cc3n12` [Ex 133, (R)-2-(2-Chloro-5-isopropyl-8-oxothieno[2′,3′:4,5]pyrrolo[1,2-d][1,2,4]triazin-7(8H)-yl)-N-(1-(2-hydroxyethyl)piperidin-3-yl)acetamide], the IC50 is > 100000 nM in test [1] and 20.5 nM with NLRP3 inflammasome (Homo sapiens, THP-1, 3 h).
In the case of `CC(C)c1nn(CC(=O)N[C@@H]2CCCN(C[C@@H](C)O)C2)c(=O)c2cc3sc(Cl)cc3n12` [Ex 128, 2-(2-Chloro-5-isopropyl-8-oxothieno[2′,3′:4,5]pyrrolo[1,2-d][1,2,4]triazin-7(8H)-yl)-N—((R)-1-((R)-2-hydroxypropyl)piperidin-3-yl)acetamide], the IC50 in test [1] was > 100000 nM; with NLRP3 inflammasome (Homo sapiens, THP-1, 3 h), 4.5 nM.
On to `CC(O)c1nn(CC(=O)N[C@@H]2CCCNC2)c(=O)c2cc3sc(Cl)cc3n12` (stereo partly drawn) [Ex 43, 2-(2-Chloro-5-(1-hydroxyethyl)-8-oxothieno[2′,3′:4,5]pyrrolo[1,2-d][1,2,4]triazin-7(8H)-yl)-N-((R)-piperidin-3-yl)acetamide hydrochloride], for which the concentration for half-maximal inhibition (IC50) in test [1] was > 100000 nM; in the test with NLRP3 inflammasome (Homo sapiens, THP-1, 3 h) it was 2050 nM.
In the case of `CC(C)c1nn(CC(=O)NCCC(C)(C)O)c(=O)c2cc3sc(Cl)cc3n12` [Ex 77, 2-(2-Chloro-5-isopropyl-8-oxothieno[2′,3′:4,5]pyrrolo[1,2-d][1,2,4]triazin-7(8H)-yl)-N-(3-hydroxy-3-methylbutyl)acetamide], the IC50 in test [1] was > 100000 nM; with NLRP3 inflammasome (Homo sapiens, THP-1, 3 h), 14 nM.
Consider `CC(C)c1nn(CC(=O)N[C@@H]2CCC[C@@](C)(O)C2)c(=O)c2cc3scnc3n12` [Ex 90, N-((1R,3R)-3-Hydroxy-3-methylcyclohexyl)-2-(5-isopropyl-8-oxothiazolo[5′,4′:4,5]pyrrolo[1,2-d][1,2,4]triazin-7(8H)-yl)acetamide], for which the IC50 was > 100000 nM in test [1] and 60.8 nM with NLRP3 inflammasome (Homo sapiens, THP-1, 3 h).
Turning to `CC(C)c1nn(CC(=O)N[C@@H]2C[C@@H]2F)c(=O)c2cc3sc(Cl)cc3n12` [Ex 52, 2-(2-Chloro-5-isopropyl-8-oxothieno[2′,3′:4,5]pyrrolo[1,2-d][1,2,4]triazin-7(8H)-yl)-N-((1R,2S)-2-fluorocyclopropyl)acetamide], the 50% inhibitory concentration (IC50) in test [1] is > 100000 nM; in the test on NLRP3 inflammasome (Homo sapiens, THP-1, 3 h), 660 nM.
